Here are results for 29 molecules from paper PMC9965875 (Pharmaceutics, 2023).

Data set [1] deals with Leishmania (L.) infantum promastigotes (strain MHOM/MA/67/ITMAP-263). Kind of data set: organism not typed. Type of data set: cell-based. The following applies: read-out: Anti-Promastigote Activity (IC50).
The next data set is described as follows: in vitro. The settings on record: BALB/c, mouse.

Read-outs that look alike come from different tables or passages of the source.

On to `O=C1C(Cl)=C(NCCCNc2c3c(nc4cc(Cl)ccc24)CCCC3)C(=O)C(Cl)=C1NCCCNc1c2c(nc3cc(Cl)ccc13)CCCC2` [Compound 9.d], for which the IC50 (usually the concentration that gives 50% inhibition) in data set [1] amounted to 2.17 ± 0.45 µM.

With `O=CNNc1c2c(nc3ccccc13)CCCC2` [Compound 8.a], the IC50 in data set [1] (24 h) was > 50 µM.

In the case of `Clc1ccc2c(NCCCCCCCCCCCCNc3c4c(nc5cc(Cl)ccc35)CCCC4)c3c(nc2c1)CCCC3` [Compound 10.n], the IC50 in data set [1] turned out to be 3.5 ± 0.63 µM. For the same molecule, in “in vitro”, the cytotoxicity at 50 µM was determined as 92.5%.

Regarding `Clc1ccc2c(NCCCCNc3c4c(nc5cc(Cl)ccc35)CCCC4)c3c(nc2c1)CCCC3` [Compound 10.j], in data set [1], the IC50 came out at 8.56 ± 1.56 µM. Besides, in “in vitro”, the EC50 (usually the midpoint of the concentration-response curve) came to 9.02 ± 1.79 µM.

Take `Clc1ccc2c(NCCCNc3c4c(nc5cc(Cl)ccc35)CCCC4)c3c(nc2c1)CCCC3` [Compound 10.i]: the IC50 in data set [1] amounted to 8.58 ± 0.47 µM. In addition, the cytotoxicity at 10 µM in “in vitro” came to 90.4%.

For the molecule `c1ccc2c(NCCCCCCCCCCNc3c4c(nc5ccccc35)CCCC4)c3c(nc2c1)CCCC3` [Compound 10.f], the IC50 in data set [1] (24 h) was determined as 0.94 ± 0.33 µM. This molecule also gave a cytotoxicity at 10 µM in “in vitro” of 99.5%.

As for `c1ccc2c(NCCCCCNc3c4c(nc5ccccc35)CCCC4)c3c(nc2c1)CCCC3` [Compound 10.d], in data set [1] (24 h), the IC50 was > 50 µM.

`Clc1ccc2c(Cl)c3c(nc2c1)CCCC3` [Compound 5.b]: the IC50 in data set [1] (24 h) was > 100 µM.

Take `c1ccc2c(NCCCCCCCCNc3c4c(nc5ccccc35)CCCC4)c3c(nc2c1)CCCC3` [Compound 10.e]: in data set [1] (24 h), the IC50 is 2.99 ± 0.98 µM. Further, the cytotoxicity at 10 µM in the data set “in vitro” turned out to be 99.5%.

As for `Clc1ccc2c(NCCCCCCCCCCNc3c4c(nc5cc(Cl)ccc35)CCCC4)c3c(nc2c1)CCCC3` [Compound 10.m], the IC50 in data set [1] came out at 1.92 ± 0.21 µM. This molecule registered a cytotoxicity at 10 µM in “in vitro” of 99%.

Take `c1ccc2c(NCCCCCCCCCCCCNc3c4c(nc5ccccc35)CCCC4)c3c(nc2c1)CCCC3` [Compound 10.g]: the IC50 in data set [1] (24 h) came to 0.37 ± 0.06 µM. The molecule also displayed a cytotoxicity at 10 µM in the data set “in vitro” of 99.7%.

`O=CNCCCNc1c2c(nc3ccccc13)CCCC2` [Compound 8.d]: in data set [1] (24 h), the half-inhibitory concentration (IC50) is 14.2 ± 0.98 µM. The molecule further gave a cytotoxicity at 50 µM in the data set “in vitro” of 100%.

`CC(=O)NCCCCCCCCNc1c2c(nc3cc(Cl)ccc13)CCCC2` [Compound 7.e]: in data set [1] (24 h), the IC50 is > 100 µM.

Turning to `O=CNCCCCCCNc1c2c(nc3ccccc13)CCCC2` [Compound 8.e], the IC50 in data set [1] (24 h) is 3.23 ± 0.41 µM. Besides, the cytotoxicity at 10 µM in the data set “in vitro” turned out to be 94.7%.

In the case of `Clc1ccc2c(NCCCCCNc3c4c(nc5cc(Cl)ccc35)CCCC4)c3c(nc2c1)CCCC3` [Compound 10.k], in data set [1], the IC50 is 5.26 ± 4.89 µM. Besides, the cytotoxicity at 10 µM in the data set “in vitro” came out at 87.5%.

For the molecule `CC(=O)NCCCCCCNc1c2c(nc3cc(Cl)ccc13)CCCC2` [Compound 7.d], the IC50 in data set [1] is > 100 µM.

In the case of `O=C1C(Cl)=C(NCCCNc2c3c(nc4ccccc24)CCCC3)C(=O)C(Cl)=C1NCCCNc1c2c(nc3ccccc13)CCCC2` [Compound 9.b], the IC50 in data set [1] is > 100 µM.

As to `O=CNCCNc1c2c(nc3ccccc13)CCCC2` [Compound 8.c], in data set [1] (24 h), the IC50 was 1.69 ± 0.22 µM. Besides, in “in vitro”, the cytotoxicity at 10 µM was 99.5%.

Consider `CC(=O)NCCCCCCCCCCNc1c2c(nc3cc(Cl)ccc13)CCCC2` [Compound 7.f], for which, in data set [1] (24 h), the IC50 was 11.2 ± 0.66 µM. Also, in “in vitro”, the cytotoxicity at 10 µM worked out at 77.5%.

As to `O=CNCNc1c2c(nc3ccccc13)CCCC2` [Compound 8.b], the IC50 in data set [1] (24 h) came to 5.64 ± 0.65 µM. For the same molecule, in “in vitro”, the cytotoxicity at 10 µM is 88.1%.

For `O=CNCCCCCCCCNc1c2c(nc3ccccc13)CCCC2` [Compound 8.f], in data set [1] (24 h), the IC50 worked out at 1.55 ± 0.38 µM. The molecule also had a cytotoxicity at 10 µM in the data set “in vitro” of 91.2%.

As for `C[C@@H]1[C@H](O)[C@@H](C)/C=C/C=C/C=C/C=C/C=C/C=C/C=C/[C@H](O[C@@H]2O[C@H](C)[C@@H](O)[C@H](N)[C@@H]2O)C[C@@H]2O[C@](O)(C[C@@H](O)C[C@@H](O)[C@H](O)CC[C@@H](O)C[C@@H](O)CC(=O)O[C@H]1C)C[C@H](O)[C@H]2C(=O)O` [Amphotericin B, reference compound], the IC50 in data set [1] (24 h) was found to be 0.17 ± 0.09 µM. Also, the EC50 in “in vitro” is 3.1 ± 0.6 µM.

On to `Clc1ccc2c(NCCNc3c4c(nc5cc(Cl)ccc35)CCCC4)c3c(nc2c1)CCCC3` [Compound 10.h], for which the melting point (usually the temperature of the solid-liquid transition) lay in the range of 89 to 95 °C. For the same molecule, the IC50 in data set [1] was determined as 9.5 ± 0.51 µM.

For the molecule `O=C1C=C(NCCCNc2c3c(nc4cc(Cl)ccc24)CCCC3)C(=O)C=C1NCCCNc1c2c(nc3cc(Cl)ccc13)CCCC2` [Compound 9.c], in data set [1], the IC50 was > 50 µM.

Consider `CC(=O)NCCCCCCCCCCNc1c2c(nc3ccccc13)CCCC2` [Compound 7.c], for which the IC50 in data set [1] (24 h) was > 100 µM.

With `CC(=O)NCCCCCCNc1c2c(nc3ccccc13)CCCC2` [Compound 7.a], the IC50 in data set [1] was > 100 µM.

`Clc1ccc2c(NCCCCCCCCCCCCNc3ccnc4cc(Cl)ccc34)ccnc2c1` [Compound 12, N^1,N^12-bis(7-chloroquinolin-4-yl)dodecane-1,12-diamine]: in data set [1] (24 h), the IC50 was found to be 0.6 ± 0.11 µM. Besides, the EC50 in the data set “in vitro” is 11.7 ± 3.96 µM.

For the molecule `CC(=O)NCCCCCCCCNc1c2c(nc3ccccc13)CCCC2` [Compound 7.b], in data set [1], the IC50 is > 100 µM.

Turning to `Clc1c2c(nc3ccccc13)CCCC2` [Compound 5.a], the IC50 in data set [1] (24 h) is > 100 µM.
